Source: patent US5834521A, “Substituted dibenz (A F)azulenes and methods of preparation” (Ortho Pharmaceutical Corporation, priority 1996, dated 1998)

These compounds were tested against T1, Progestin Receptor (Oryctolagus cuniculus, UniProt P06186) (assay: Progestin Receptor Binding (competitive binding, 3H-promegestone, rabbit uterus receptor preparation)). Conditions: 3H-promegestone displacement, 4° C., 18 h.
T1 construct: The high speed supernatant fraction was used as the receptor preparation; from tissue; host or cells: uterus of New Zealand rabbits, 200,000×g supernatant (cytosol)
T1 sequence (P06186 1-930): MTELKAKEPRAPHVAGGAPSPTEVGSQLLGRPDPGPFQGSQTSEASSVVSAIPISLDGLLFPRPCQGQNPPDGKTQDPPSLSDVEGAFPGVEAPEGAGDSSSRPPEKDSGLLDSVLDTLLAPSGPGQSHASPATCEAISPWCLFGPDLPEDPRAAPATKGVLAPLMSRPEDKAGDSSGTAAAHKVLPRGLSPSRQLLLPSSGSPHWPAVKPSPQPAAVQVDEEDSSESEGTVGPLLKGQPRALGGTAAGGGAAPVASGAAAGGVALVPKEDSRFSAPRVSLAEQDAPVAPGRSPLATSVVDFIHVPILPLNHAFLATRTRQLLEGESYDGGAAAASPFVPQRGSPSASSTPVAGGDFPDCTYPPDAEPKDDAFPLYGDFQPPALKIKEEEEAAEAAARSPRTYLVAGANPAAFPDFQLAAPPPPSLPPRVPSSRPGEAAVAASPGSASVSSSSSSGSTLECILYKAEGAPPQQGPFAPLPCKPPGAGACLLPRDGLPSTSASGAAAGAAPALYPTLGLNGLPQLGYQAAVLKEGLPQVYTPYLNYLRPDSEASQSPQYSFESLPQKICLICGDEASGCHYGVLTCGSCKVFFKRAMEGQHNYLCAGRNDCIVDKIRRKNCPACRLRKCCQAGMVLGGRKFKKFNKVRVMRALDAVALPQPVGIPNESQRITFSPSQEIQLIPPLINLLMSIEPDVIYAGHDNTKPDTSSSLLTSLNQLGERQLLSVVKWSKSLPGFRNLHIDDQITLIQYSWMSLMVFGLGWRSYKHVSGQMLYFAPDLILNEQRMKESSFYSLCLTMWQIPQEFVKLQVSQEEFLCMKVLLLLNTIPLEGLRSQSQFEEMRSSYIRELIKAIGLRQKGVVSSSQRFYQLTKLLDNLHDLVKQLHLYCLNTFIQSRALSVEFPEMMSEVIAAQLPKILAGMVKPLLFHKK
Design: species or system New Zealand rabbits
Protocol: Progestin Receptor Binding
The procedure used was essentially that of J. L. McGuire, C.
Uteri from New Zealand rabbits (1.5 to 2.5 kg) were placed in a cold buffer A (0.01 mol Tris-HCl, pH 8.0, 0.001 mol EDTA, 0.25 mol sucrose). The uteri were minced, washed and homogenized in cold buffer A. The homogenate (2 g wet tissue/mL buffer) was centrifuged at 200,000×g for 1 h at 4° C. The high speed supernatant fraction was used as the receptor preparation.
A competitive binding assay was performed by mixing 3H-promegestone with the receptor preparation and adding a known amount of unlabeled compound. This mixture was incubated at 4° C. for 18 h. The compounds bound to the receptor were separated from those which were free in solution using dextran coated charcoal and the amount of isotope bound to the receptor was determined by scintillation counting. The extent of the compound's interaction with the receptor is measured as the percent reduction in the total isotope bound caused by the unlabeled test compound as compared to the control levels. The receptor screen consists of measuring the reduction in the total isotope bound caused by the unlabeled test compound at […] final concentrations.

Row | Compound | IC50 [nM]
1 | CC[C@]12Cc3ccccc3C1C[C@@H](C)c1ccc(O)cc1C2 (some centres unmarked) [Compound 46] | 65
2 | COc1cc2c(c(OC)c1)[C@H](C)C[C@@H]1c3ccccc3C[C@]1(C)C2 (relative stereo) [Compound 86] | 1670
3 | CCOP(=O)(OCC)Oc1ccc2c(c1)CC1(C)Cc3cc(F)ccc3C1CC2C (centres unmarked) [Compound 49, 9-(2-Fluoro-6,11,11a,12-tetrahydro-6,11a-dimethyl)-dibenz[a,f]azulenyl diethyl phosphoric acid] | 72
4 | CCCC12Cc3ccccc3C1=CCc1c(cccc1OC)C2 (centres unmarked) [Compound 29] | 15
5 | CC(=O)Oc1cccc2c1CCC1c3ccccc3CC1(C)C2 (centres unmarked) [Compound 108] | 29
6 | CC1CC2c3ccccc3CC2(C)Cc2cc(N)ccc21 (centres unmarked) [Compound 89, 9-Amino-6,11a-dimethyl-4b,5,6,11,11a,12-hexahydrodibenz[a,f]azulene] | 137
7 | CCCC12Cc3cc(OC)ccc3CC=C1c1ccc(F)cc1C2 (centres unmarked) [Compound 57] | 67
8 | COc1cc2c(cc1[N+](=O)[O-])C(C)CC1c3ccc(F)cc3CC1(C)C2 (centres unmarked) [Compound 65, 6,11a-Dimethyl-2-fluoro-8-nitro-9-methoxy-4b,5,6,11,11a,12-hexahydrodibenz[a,f]azulene 1/4 Hydrate] | 9
9 | CC(=O)Nc1cc2c(cc1[N+](=O)[O-])C(C)CC1c3ccccc3CC1(C)C2 (centres unmarked) [Compound 91] | 115
10 | CC1CC2c3ccccc3CC2(C)Cc2ccccc21 (centres unmarked) [Compound 28, 6,11a,-Dimethyl-4b,5,6,11,11a,12-hexahydrodibenz[a,f]azulene] | 32
11 | COc1ccc2c(c1)C[C@@]1(C)Cc3ccccc3[C@H]1C[C@H]2C (relative stereo) [Compound 8] | 476
12 | COc1ccc2c(c1)CC1(C)Cc3ccccc3C1=CC2C (centres unmarked) [Compound 106, 6,11,11a,12-Tetrahydro-9-methoxy-6,11a-dimethyldibenz[a,f]-azulene] | 105
13 | CC[C@]12Cc3ccccc3C1C[C@@H](C)c1ccc(OC)cc1C2 (some centres unmarked) [Compound 23] | 419
14 | CCCC12Cc3cc(OC)ccc3C(C)CC1c1ccccc1C2 (centres unmarked) [Compound 48] | 182
15 | COc1cccc2c1CC=C1c3ccccc3CC1(C)C2 (centres unmarked) [Compound 1, 7-Methoxy-11a-methyl-6,11,11a,12-tetrahydrodibenz[a,f]azulene] | 143
16 | COc1ccc2c(c1)C[C@@]1(C)Cc3ccccc3C1[C@@H](O)[C@H]2C (relative stereo) [Compound 64, 6,11a-Dimethyl-5-hydroxy-9-methoxy-4b,5,6,11,11a,12-hexahydrodibenz[a,f]azulene (β-OH)] | 1680
17 | COc1ccc2c(c1)CC1(C)Cc3ccccc3C1CC2C (centres unmarked) [Compound 107, 4b,5,6,11,11a,12-Hexahydro-9-methoxy-6,11a-dimethyldibenz-[a,f]azulene] | 678
18 | C=C1C=C2c3ccccc3CC2(C)Cc2cc(OC)ccc21 (centres unmarked) [Compound 105, 6,11,11a,12-Tetrahydro-6-methenyl-9-methoxy-11a-methyldibenz[a,f]azulene] | 676
19 | COc1ccc2c(c1)C[C@@]1(C)Cc3ccccc3[C@H]1[C@H](O)[C@H]2C (relative stereo) [Compound 13, 6,11a-Dimethyl-5-hydroxy-9-methoxy-4b,5,6,11,11a,12-hexahydrodibenz[a,f]azulene (α--OH)] | 337
20 | CC(=O)Nc1ccc2c(c1)CC1(C)Cc3ccccc3C1=CC2C (centres unmarked) [Compound 83, 9-Acetamido-6,11,11a,12-tetrahydro-6,11a-dimethyldibenz[a,f]azulene] | 1970
21 | CC[C@]12Cc3ccccc3C1=C[C@@H](C)c1ccc(OC)cc1C2 (relative stereo) [Compound 17] | 160
22 | COc1ccc2c(c1)C[C@@]1(C)Cc3ccccc3C1=C[C@H]2C (relative stereo) [Compound 3] | 40
23 | COc1ccc2c(c1)CC1(C)Cc3cc(OC)ccc3C1C(O)C2C (centres unmarked) [Compound 19] | 668
24 | CCC[C@]12Cc3ccccc3C1=C[C@@H](C)c1ccc(Br)cc1C2 (relative stereo) [Compound 92] | 139

Row | Compound | IC50 [nM]
25 | CC1CC2c3ccc(F)cc3CC2(C)Cc2ccccc21 (centres unmarked) [Compound 69, 6,11a-Dimethyl-2-fluoro-4b,5,6,11,11a,12-hexahydrodibenz[a,f]azulene] | 37
26 | CC[C@]12Cc3cc(OC)ccc3C1=C[C@@H](C)c1ccc(OC)cc1C2 (relative stereo) [Compound 22] | 421
27 | CC1c2cc([N+](=O)[O-])c(O)cc2CC2(C)Cc3ccccc3C2C1O (centres unmarked) [Compound 24, 6,11a-Dimethyl-5,9-dihydroxy-8-nitro-4b,5,6,11,11a,12-hexahydrodibenz[a,f]azulene] | 258
28 | CCCC12Cc3cc(OC(C)=O)ccc3CCC1c1ccccc1C2 (centres unmarked) [Compound 50] | 42
29 | CCCC12Cc3cc(O)ccc3CCC1c1ccccc1C2 (centres unmarked) [Compound 40] | 51
30 | CCC[C@]12Cc3cc(F)ccc3[C@H]1CCc1c(cccc1OC)C2 (relative stereo) [Compound 73] | 100
31 | COc1cc2c(cc1C(C)=O)C(C)CC1c3ccccc3CC1(C)C2 (centres unmarked) [Compound 61, 8-Acetyl-4b,5,6,11,11a,12-hexahydro-6,11a-dimethyl-9-methoxydibenz[a,f]azulene] | 365
32 | COc1ccc2c(c1[N+](=O)[O-])CC1(C)Cc3ccccc3C1C(O[N+](=O)[O-])C2C (centres unmarked) [Compound 82, 5-(6,11a-Dimethyl-9-methoxy-10-nitro-4b-5,6,11,11a,12-hexahydro)dibenz[a,f]azulenyl nitrate ester] | 99
33 | CC1CC2c3ccccc3CC2(C)Cc2c1cc([N+](=O)[O-])c(O)c2[N+](=O)[O-] (centres unmarked) [Compound 101, 4b,5,6,11,11a,12-Hexahydro-9-hydroxy-6,11a-dimethyl-8,10-dinitrodibenz[a,f]azulene] | 621
34 | CC1CC2c3ccc(F)cc3CC2(C)Cc2cc(OCCN(C)C)ccc21 (centres unmarked) [Compound 55, 6,11a-Dimethyl-9-(N,N'-dimethylamino)ethoxy-2-fluoro-4b,5,6,11,11a,12-hexahydro-6,11a-dimethyldibenz[a,f]-azulene] | 541
35 | COc1cc2c(cc1[N+](=O)[O-])C(C)CC1c3ccccc3CC1(C)C2 (centres unmarked) [Compound 102, 4b,5,6,11,11a,12-Hexahydro-9-methoxy-6,11a-dimethyl-8-nitro-dibenz[a,f]azulene] | 1470
36 | COc1cc2c(cc1[N+](=O)[O-])C(C)C(O)C1c3ccccc3CC1(C)C2 (centres unmarked) [Compound 25, 6,11a-Dimethyl-5-hydroxy-9-methoxy-8-nitro-4b,5,6,11,11a,12-hexahydrodibenz[a,f]azulene] | 121
37 | COc1cccc2c1[C@H](C)C[C@@H]1c3ccccc3C[C@]1(C)C2 (relative stereo) [Compound 54] | 118
38 | COc1cc2c(cc1C(C)=O)[C@H](C)C=C1c3ccccc3C[C@]1(C)C2 (relative stereo) [Compound 44] | 190
39 | COc1ccc2c(c1)C[C@@]1(C)Cc3cc(F)ccc3[C@H]1C[C@H]2C (relative stereo) [Compound 47] | 25
40 | CC1CC2c3ccccc3CC2(C)Cc2cc(OCCN(C)C)ccc21 (centres unmarked) [Compound 51] | 410
41 | CCCCC12Cc3cc(OC)ccc3CC=C1c1ccccc1C2 (centres unmarked) [Compound 67] | 185
42 | CCCC12Cc3cc(F)ccc3C1=CCc1c(cccc1OC)C2 (centres unmarked) [Compound 56] | 34
43 | COc1ccc2c(c1)CC1(C)Cc3ccccc3C1=CC2 (centres unmarked) [Compound 2, 9-Methoxy-11a-methyl-6,11,11a,12-tetrahydrodibenz[a,f]azulene] | 239
44 | CC12Cc3ccccc3C1CCc1c(F)cccc1C2 (centres unmarked) [Compound 98] | 60
45 | CCCC12Cc3cc(OC)ccc3CCC1c1ccccc1C2 (centres unmarked) [Compound 35] | 133
46 | 6,11,11a,12-Tetrahydro-8-carboxy-9-methoxy-6,11a-dimethyldibenz[a,f]azulene [Compound 80] | 10000
47 | CCC[C@]12Cc3ccccc3C1=C[C@@H](C)c1ccc(I)cc1C2 (relative stereo) [Compound 99] | 90
